Laboratory results taken from patent US11773081B2, “Pharmaceutical composition for preventing or treating wound, comprising indirubin derivative as active ingredient” (CK Regeon Inc., priority 2018, dated 2023).
Entries after “also recorded” stand apart in the source; their conditions may differ.

Key:
Assay type in all cases: in vivo
[1] = system: diabetic wound; experiment: Effect of treating diabetic wound (Test Example 9); conditions: diabetes-induced mouse
Experimental: 3-week-old male C57BL/6N mice (Koatech, South Korea) were used. After accustoming the mice for a week to normal feed, high-fat diet (Product Data—D12492; 60% kcal, hereinafter referred to as HFD) was given for 4 weeks. Then, a diabetes-induced animal model was prepared by intraperitoneally injecting 40 mg/kg streptozocin (Sigma) once daily for a week. The mice were kept in cages maintained at constant temperature (22±2° C.) and relative humidity (40-60%) with light/dark cycles of 12/12 hours.
6 mice of the normal control group and 6 mice per test group of the diabetes-induced animal model of Test Example 7 were prepared. The hair on the back was removed and a 0.8×0.8 cm^2 wound was made on the hair-removed region.
For the normal control group, only 20 μL of an emulsion solution (Kollipore®EL:Tween 80:PEG 400 at a mixing weight ratio of 80:6:14) was applied to the wound site once daily for 14 days. For the negative control group, only 20 μL of the emulsion solution (Kollipore®EL:Tween 80:PEG 400 at a mixing weight ratio of 80:6:14) was applied to the wound site once daily for 14 days. For the positive control group (VPA), 20 μL of a composition prepared by mixing 500 mM VPA in an emulsion solution was applied to the wound site once daily for 14 days.
For the first test group, 20 μL of A3334 (Example 1) was applied to the wound site once daily for 14 days. For the second test group, 20 μL of A3051 (Example 2) was applied to the wound site once daily for 14 days. Then, the wound site of each group was photographed and the wound area was measured (FIG. 14). On day 14, after euthanizing the mouse with carbon dioxide, the wound site tissue was harvested and the histological structure was observed.
Specifically, the wound site tissue obtained from the normal control group, the negative control group, the positive control group or the first or second test group was fixed by immersing in 4% paraformaldehyde, embedded in paraffin and then sliced into 4 μm thickness. The sliced tissue was deparaffinized, rehydrated and then stained with hematoxylin (purple) and eosin (pink) for observation of histological structure.
Specifically, the wound site tissue obtained from the normal control group, the negative control group, the positive control group or the first or second test group was fixed by immersing in 4% paraformaldehyde, embedded in paraffin and then sliced into 4 μm thickness. The sliced tissue was deparaffinized, rehydrated and then stained with Van Gieson's stain and Masson's trichrome for observation of histological structure. For the Van Gieson's staining, the sliced tissue was immersed in Weigert's solution for 10 minutes and in picrofuchsin solution for 2 minutes. For the Masson's trichrome staining, the sliced tissue was immersed in Weigert's iron hematoxylin solution for 10 minutes and in Biebrich scarlet-acid fuchsin and Aniline blue for 5 minutes each.
Specifically, the wound site tissue obtained from the normal control group, the negative control group, the positive control group or the first and second test groups was fixed by immersing in 4% paraformaldehyde and angiogenesis was observed.

[2] = system: mouse acute wound; experiment: Wound healing effect of extract and indirubin derivative mixtures in mouse acute wound (Test Example 6); conditions: mouse acute wound tissue, fluorescence staining
Experimental: Wound healing-promoting effect was investigated after treating an animal model with the indirubin derivative of Example 1 (0.5 mM), the indirubin derivative of Example 2 (0.5 mM) or the mixtures of Examples 12 and 13 (0.5 mM indirubin derivative mixed with 1 μg/mL Euodia sutchuenensis Dode extract).
The hair on the back of 7-week-old C3H mouse that entered the resting period was removed and a 1.5×1.5 cm^2 wound was made on the hair-removed region. A sample was applied to a positive control group, once daily for 12 days. After measuring wound size of the experimental animal on days 0 and 12, the wound tissue was fixed by immersing in 4% paraformaldehyde, embedded in paraffin and then sliced into 4 μm thickness. The sliced tissue was deparaffinized, rehydrated and then the degree of re-epithelialization was compared. Masson's trichrome staining and Picrosirius red staining were conducted for evaluation of the degree of collagen synthesis. For Masson's trichrome staining, a slide was immersed in Weigert's iron hematoxylin solution for 10 minutes and in Biebrich scarlet-acid fuchsin and aniline blue for 5 minutes each. […] The sliced skin tissue was fluorescence-stained using β-catenin, PCNA, keratin 14 and collagen I antibodies and was observed using a fluorescence microscope (FIG. 9a). […]

[3] = system: mouse acute wound; experiment: Wound healing and collagen synthesis in mouse acute wound (Test Example 2)
Experimental: The wound healing-promoting effect of the indirubin derivatives prepared in Examples 1 and 2, the indirubin derivative of Comparative Example 1 (10) and EGF, known as an existing wound healing agent, as a positive control group was investigated through animal experiments.
The hair on the back of 7-week-old C3H mouse that entered the resting period was removed and a 1.5×1.5 cm^2 wound was made on the hair-removed region. 20 μL of a vehicle (10% DMSO, 45% ethanol, 18% propylene glycol, 27% water) and the indirubin derivative of Comparative Example 1 (10) were applied to a control group and a comparison group, respectively, once daily for 12 days. For the positive control group, 100 μM EGF was applied once daily for 12 days. For a first test group, 20 μL of the indirubin derivative of Example 2 (A3051) was applied once daily for 12 days. For a second test group, 20 μL of the indirubin derivative of Example 1 (A3334) was applied once daily for 12 days.
The tissue of each experimental mouse was fixed by immersing in 4% paraformaldehyde, embedded in paraffin and then sliced into 4 μm thickness. The sliced tissue was deparaffinized, rehydrated and then stained with Masson's trichrome and Picrosirius red for evaluation of the degree of collagen synthesis. For Masson's trichrome staining, a slide was placed in Weigert's iron hematoxylin solution for 10 minutes and in Biebrich scarlet-acid fuchsin and aniline blue for 5 minutes each. For Picrosirius red staining, a slide was placed in Weigert's solution for 8 minutes and in Picrosirius red for 1 hour.

[4] = C3H mouse acute wound, once daily for 12 days, vs EGF

Which “angiogenesis around the wound site” value [1] does the source give for COc1ccc2c(c1)/C(=C1/Nc3ccccc3/C1=N\O)C(=O)N2 [Example 1, 5-methoxylindirubin-3′-oxime] here?
The value was “increased angiogenesis”.

What about the “healing of the wound site” value ([1]; 0.8×0.8 cm^2 wound, 20 μL once daily for 14 days, VPA 500 mM) of the same compound?
Its value is “healing of the wound site was promoted similarly to the normal control group”.

And the “re-epithelialization (H&E)” value ([1]; 14 days)?
The value was “re-epithelialization occurred quickly”.

And the “collagen synthesis (Van Gieson's stain, Masson's trichrome)” value ([1]; vs normal, negative and positive control group (VPA))?
Its value is “increased collagen synthesis”.

And the “expression of β-catenin, PCNA, keratin 14 and collagen I” value [2]?
The value was “slightly lower as compared to the positive control group”.

What about the “quantity of collagen (Masson's trichrome, Picrosirius red, van Gieson's stain)” value ([3]; C3H mouse acute wound tissue, vs control group, Comparative Example 1, positive control group) of the same compound?
Its value is “remarkably increases the quantity of collagen”.

And the “re-epithelialization of acute wound” value [3, 4]?
The value was “re-epithelialized comparably to or faster than the positive control group EGF”.

And the “scar-reducing effect, repair of the epidermal layer of skin” value [3, 4]?
Its value is “repairing the epidermal layer of skin without remaining scars”.

And the “wound repair effect as compared to the positive control group EGF” value ([3]; C3H mouse, 1.5×1.5 cm^2 wound, 20 μL once daily for 12 days, EGF 100 μM, listed as A3334)?
The value was “slightly superior wound repair effect; also recorded: slightly better wound repair effect”.
